According to patent US20160220489A1, “Intranasal Formulation for the Treatment of Cardiopulmonary Resuscitation (CPR), Cardiac Life Support (CLS), Anaphylaxis and/or Anaphylactoid Reactions” (G2B Pharma Inc., priority 2013, published 2016):
Counter-ions that a name gives are not always drawn. Like-named read-outs stand apart in the source and are kept apart here.

Key:
[1] = cited from earlier work
[2] = Text: Unless otherwise indicated, “primary particle diameter” can refer to the particle size distribution of a powder in its non-aggregated state. Primary particle diameter can be determined using a laser-diffraction particle size distribution analyzer. In some embodiments, the particle size analyzer can be Mastersizer 2000 manufactured by Malvern Instruments Limited.
Unless otherwise indicated, “median diameter” can refer to a diameter that divides particles into two groups of equal numbers: a group with greater diameters and a group with smaller diameters. A median diameter can be determined using a laser-diffraction particle size distribution analyzer and can correspond to 50% volume in a determined cumulative particle size distribution curve. In some embodiments, the particle size analyzer can be Mastersizer 2000 manufactured by Malvern Instruments Limited.
Data Handling • 1. Using Mastersizer 2000 software, combine particle size distribution data obtained for each dispersion pressure. • 2. If necessary, conduct particle size analysis using Wet Dispersion Method. • 3. Choose the optimum dispersion pressure.

[3] = nasal spray, loading dose 5 mg, normal human subjects; cited from earlier work
[4] = system: rats; conditions: intramuscular administration in rats; cited from earlier work
[5] = system: rabbits; conditions: inhalation in rabbits; cited from earlier work
[6] = system: MUS; conditions: in vivo; cited from earlier work
[7] = Dry Dispersion Method, dispersion air pressure 0.5 bar
[8] = Dry Dispersion Method, dispersion air pressure 1.0 bar
[9] = Dry Dispersion Method, dispersion air pressure 2.0 bar
[10] = Dry Dispersion Method, dispersion air pressure 3.0 bar
[11] = Dry Dispersion Method, dispersion air pressure 4.0 bar

For C[C@H](CCC(=O)NCCS(=O)(=O)O)[C@H]1CC[C@H]2[C@@H]3CC[C@@H]4C[C@H](O)CC[C@]4(C)[C@H]3C[C@H](O)[C@]12C [bile salts, taurodeoxycholic acid], the “nasal mucosal tissue damage” value ([1]; used as mucosal permeation enhancers (1% taurodeoxycholic acid)) is listed as “severe nasal mucosal tissue damage”.
For CNC[C@H](O)c1ccc(O)c(O)c1 [epinephrine], the “Volume under 10%” value [2, 7] was 17.8 μm, the “Volume under 50%” value [2, 7] was 29.1 μm and the “Volume under 90%” value [2, 7] was 45.9 μm. For the same molecule, the “Volume under 10%” value [2, 8] was 15.5 μm, the “Volume under 50%” value [2, 8] was 27.2 μm and the “Volume under 90%” value [2, 8] was 43.6 μm. The “Volume under 10%” value [2, 9] was 4.8 μm, the “Volume under 50%” value [2, 9] was 22.6 μm and the “Volume under 90%” value [2, 9] was 41.8 μm. The “Volume under 10%” value [2, 10] was 2.7 μm, the “Volume under 50%” value [2, 10] was 18.8 μm and the “Volume under 90%” value [2, 10] was 38.6 μm. For the same molecule, the “Volume under 10%” value [2, 11] was 2.4 μm, the “Volume under 50%” value [2, 11] was 18.2 μm and the “Volume under 90%” value [2, 11] was 38.3 μm. For the same molecule, the “Volume under 10%” value ([2]; Wet Dispersion Method) was 18.1 μm, the “Volume under 50%” value ([2]; Wet Dispersion Method) was 31.2 μm and the “Volume under 90%” value ([2]; Wet Dispersion Method) was 50.7 μm. The “greatest epinephrine plasma concentrations” value ([1]; intranasal 7.5 mg/kg/nostril of epinephrine after […] of phentolamine, dog) was ~1,400 ng/mL, the “Tmax (peak plasma concentration reached)” value [3] was 1.17 ± 0.283 h and the LD50 [4] was 3500 mg/kg. The LD50 [5] was 2.5 mg/kg.
For Cc1ccc(N(CC2=NCCN2)c2cccc(O)c2)cc1 [phentolamine], the “IVN-MUS LD50” value [6] is listed as 75 mg/kg.
